Reference: PMC9234961 (Journal of Medicinal Chemistry, 2022)

Experiments:
HT = assay: Cell proliferation assay (14 days), HT
Experimental: Cells were seeded in 96-well culture plates at a density of 2500 cells/well in RPMI-1640 medium (Sigma-
Aldrich) supplemented with 10% FBS (Gibco). Compounds were initially dispensed into 96-well U-bottom
plates using an Echo 550 acoustic dispenser (Labcyte Inc.), then diluted in RPMI-1640 medium and
transferred onto the cells. Cells were treated with 8 compound concentrations in duplicate, ranging from
with compound for 14 days, with medium changes at days 3, 7 and 10 carried out as follows: fresh 96-well
cell culture plates were prepared containing 100 µl medium plus compound at the assay concentrations
(white plates were used on day 10 to optimise luminescence measurement). Assay plates containing cells
were vortexed to mix and cell density in one control well was counted using a Coulter Z2 cell counter
(Beckman Coulter). The volume of medium containing 2500 cells in the control well was calculated and this volume of cells was transferred from every well of the assay plates to the corresponding well of the fresh plates containing compound. After 14 days, CellTiter Glo reagent (Promega) was added to the medium in each well of the assay plate at a ratio of 1:2, mixed on a plate shaker, then incubated at room temperature for 10 minutes. Luminescence was measured using an Envision plate reader (Perkin Elmer) and the relative luminescence at each compound concentration, compared to DMSO alone, was calculated. GI50 were determined using a 4-parameter curve fit in Dotmatics (Bishops Stortford, UK).

COX1 = COX1 (Homo sapiens, UniProt P23219); assay: SAFETYScan Non-Kinase Enzymes Enzymatic, Inhibitor; format: biochemical
From the text: (§1) Supplement jm1c02175_si_002.xlsx, sheet "SAFETYScan" | column: RC50 (uM); Max Response

PDE3A = PDE3A (Homo sapiens, UniProt Q14432); assay: SAFETYScan Non-Kinase Enzymes Enzymatic, Inhibitor; format: biochemical
From the text: as §1

PDE4D2 = PDE4D2 (Homo sapiens, UniProt Q08499); assay: SAFETYScan Non-Kinase Enzymes Enzymatic, Inhibitor; format: biochemical
From the text: as §1

COX2 = COX2 (Homo sapiens, UniProt P35354); assay: SAFETYScan Non-Kinase Enzymes Enzymatic, Inhibitor; format: biochemical
From the text: as §1

AChE = AChE (Homo sapiens, UniProt P22303); assay: SAFETYScan Non-Kinase Enzymes Enzymatic, Inhibitor; format: biochemical
From the text: as §1

MAOA = MAOA (Homo sapiens, UniProt P21397); assay: SAFETYScan Non-Kinase Enzymes Enzymatic, Inhibitor; format: biochemical
From the text: as §1

CNR1 = target: T1, CNR1 (Homo sapiens, UniProt P21554); assay: SAFETYScan GPCR cAMP, Antagonist; format: cell-based
T1 construct: expressed in transfected cells
From the text: as §1

OPRM1 = OPRM1 (Homo sapiens, UniProt P35372); assay: SAFETYScan GPCR cAMP, Antagonist; format: cell-based
From the text: as §1

ADRB2 = target: T2, ADRB2 (Homo sapiens, UniProt P07550); assay: SAFETYScan GPCR cAMP, Antagonist; format: cell-based
T2 construct: expressed in transfected cells
From the text: as §1

DRD2S = target: T3, DRD2S (Homo sapiens, UniProt P14416); assay: SAFETYScan GPCR cAMP, Antagonist; format: cell-based
T3 construct: expressed in transfected cells
From the text: as §1

HRH2 = target: T4, HRH2 (Homo sapiens, UniProt P25021); assay: SAFETYScan GPCR cAMP, Antagonist; format: cell-based
T4 construct: expressed in transfected cells
From the text: as §1

CNR2 = target: T5, CNR2 (Homo sapiens, UniProt P34972); assay: SAFETYScan GPCR cAMP, Antagonist; format: cell-based
T5 construct: expressed in transfected cells
From the text: as §1

HTR1A = target: T6, HTR1A (Homo sapiens, UniProt P08908); assay: SAFETYScan GPCR cAMP, Antagonist; format: cell-based
T6 construct: expressed in transfected cells
T6 sequence (P08908 1-422): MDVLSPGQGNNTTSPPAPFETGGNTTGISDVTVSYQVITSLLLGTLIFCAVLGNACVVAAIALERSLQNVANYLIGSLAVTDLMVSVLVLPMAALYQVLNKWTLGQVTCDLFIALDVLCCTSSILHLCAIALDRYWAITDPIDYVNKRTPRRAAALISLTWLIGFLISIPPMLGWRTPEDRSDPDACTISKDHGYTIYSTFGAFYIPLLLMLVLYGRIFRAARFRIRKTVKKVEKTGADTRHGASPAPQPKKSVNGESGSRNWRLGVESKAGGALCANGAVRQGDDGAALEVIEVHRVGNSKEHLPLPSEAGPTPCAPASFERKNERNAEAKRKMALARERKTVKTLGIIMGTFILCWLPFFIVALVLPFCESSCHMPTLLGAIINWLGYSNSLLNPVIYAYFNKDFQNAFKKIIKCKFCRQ
From the text: as §1

HTR1B = target: T7, HTR1B (Homo sapiens, UniProt P28222); assay: SAFETYScan GPCR cAMP, Antagonist; format: cell-based
T7 construct: expressed in transfected cells
From the text: as §1

ADRB1 = target: T8, ADRB1 (Homo sapiens, UniProt P08588); assay: SAFETYScan GPCR cAMP, Antagonist; format: cell-based
T8 construct: expressed in transfected cells
From the text: as §1

ADRA2A = target: T9, ADRA2A (Homo sapiens, UniProt P08913); assay: SAFETYScan GPCR cAMP, Antagonist; format: cell-based
T9 construct: expressed in transfected cells
T9 sequence (P08913 1-465): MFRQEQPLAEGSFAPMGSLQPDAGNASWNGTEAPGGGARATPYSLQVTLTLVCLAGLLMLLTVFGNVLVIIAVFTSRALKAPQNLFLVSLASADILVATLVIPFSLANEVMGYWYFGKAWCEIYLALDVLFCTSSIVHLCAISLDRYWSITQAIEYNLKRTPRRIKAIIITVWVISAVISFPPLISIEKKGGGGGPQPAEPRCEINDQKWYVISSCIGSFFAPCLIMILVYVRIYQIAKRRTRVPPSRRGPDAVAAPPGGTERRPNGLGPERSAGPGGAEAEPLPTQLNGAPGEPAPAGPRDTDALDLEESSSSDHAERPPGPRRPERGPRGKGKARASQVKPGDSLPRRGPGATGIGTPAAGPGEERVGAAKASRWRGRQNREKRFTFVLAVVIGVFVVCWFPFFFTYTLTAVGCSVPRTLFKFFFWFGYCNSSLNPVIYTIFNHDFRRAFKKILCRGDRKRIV
From the text: as §1

OPRK1 = OPRK1 (Homo sapiens, UniProt P41145); assay: SAFETYScan GPCR cAMP, Antagonist; format: cell-based
From the text: as §1

SERT = SERT (Homo sapiens, UniProt P31645); assay: SAFETYScan Transporter, Blocker; format: cell-based
From the text: as §1

NET = NET (Homo sapiens, UniProt P23975); assay: SAFETYScan Transporter, Blocker; format: cell-based
From the text: as §1

DAT = DAT (Homo sapiens, UniProt Q01959); assay: SAFETYScan Transporter, Blocker; format: cell-based
From the text: as §1

in vitro = in vitro ADME; details: pH 7.4, 10 µM, 16 h at 30 °C

Sequence of PDE4D2 (Q08499 303-809 limits assumed): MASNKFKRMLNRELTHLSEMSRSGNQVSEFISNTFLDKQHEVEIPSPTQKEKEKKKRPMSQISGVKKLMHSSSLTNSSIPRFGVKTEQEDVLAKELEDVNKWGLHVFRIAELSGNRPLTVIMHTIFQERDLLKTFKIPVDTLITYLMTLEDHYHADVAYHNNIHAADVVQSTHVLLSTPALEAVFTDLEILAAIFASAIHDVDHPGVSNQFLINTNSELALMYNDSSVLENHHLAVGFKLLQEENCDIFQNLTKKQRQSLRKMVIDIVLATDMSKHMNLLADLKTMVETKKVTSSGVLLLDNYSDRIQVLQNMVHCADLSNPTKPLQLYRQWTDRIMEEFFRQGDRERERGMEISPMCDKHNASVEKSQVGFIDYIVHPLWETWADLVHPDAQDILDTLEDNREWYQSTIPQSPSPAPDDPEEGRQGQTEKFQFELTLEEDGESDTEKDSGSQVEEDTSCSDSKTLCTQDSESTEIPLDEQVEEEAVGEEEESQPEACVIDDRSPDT
T4 sequence (P25021 whole entry): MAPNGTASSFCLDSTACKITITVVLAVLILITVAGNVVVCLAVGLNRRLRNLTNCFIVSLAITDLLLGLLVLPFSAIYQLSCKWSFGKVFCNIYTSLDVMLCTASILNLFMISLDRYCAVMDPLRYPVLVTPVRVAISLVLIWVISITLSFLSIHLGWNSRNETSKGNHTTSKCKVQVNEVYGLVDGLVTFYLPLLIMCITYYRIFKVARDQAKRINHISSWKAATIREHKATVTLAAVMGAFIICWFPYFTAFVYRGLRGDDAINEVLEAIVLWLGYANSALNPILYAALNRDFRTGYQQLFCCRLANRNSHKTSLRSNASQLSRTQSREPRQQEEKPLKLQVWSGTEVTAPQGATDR
T2 sequence (P07550 whole entry): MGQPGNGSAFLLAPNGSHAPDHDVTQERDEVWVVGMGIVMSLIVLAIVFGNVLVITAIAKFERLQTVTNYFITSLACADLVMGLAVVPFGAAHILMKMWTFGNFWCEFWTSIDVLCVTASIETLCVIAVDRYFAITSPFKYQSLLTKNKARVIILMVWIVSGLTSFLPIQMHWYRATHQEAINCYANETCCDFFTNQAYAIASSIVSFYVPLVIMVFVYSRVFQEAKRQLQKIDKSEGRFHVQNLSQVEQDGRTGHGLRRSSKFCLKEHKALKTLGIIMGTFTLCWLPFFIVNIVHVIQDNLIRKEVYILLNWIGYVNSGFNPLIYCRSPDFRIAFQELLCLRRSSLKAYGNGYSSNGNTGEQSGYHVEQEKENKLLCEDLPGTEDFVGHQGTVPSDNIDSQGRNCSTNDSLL
Sequence of OPRK1 (P41145 whole entry, species assumed): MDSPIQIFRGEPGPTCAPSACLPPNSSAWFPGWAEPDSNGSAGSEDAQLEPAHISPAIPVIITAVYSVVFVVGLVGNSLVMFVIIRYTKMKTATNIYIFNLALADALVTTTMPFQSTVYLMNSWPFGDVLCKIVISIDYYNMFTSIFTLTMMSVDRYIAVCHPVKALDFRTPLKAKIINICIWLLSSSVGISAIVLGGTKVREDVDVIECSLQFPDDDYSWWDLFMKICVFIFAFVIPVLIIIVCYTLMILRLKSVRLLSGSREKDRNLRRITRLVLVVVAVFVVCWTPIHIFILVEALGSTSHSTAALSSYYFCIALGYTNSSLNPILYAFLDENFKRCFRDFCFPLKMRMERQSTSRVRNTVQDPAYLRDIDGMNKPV
Sequence of COX1 (P23219 24-599): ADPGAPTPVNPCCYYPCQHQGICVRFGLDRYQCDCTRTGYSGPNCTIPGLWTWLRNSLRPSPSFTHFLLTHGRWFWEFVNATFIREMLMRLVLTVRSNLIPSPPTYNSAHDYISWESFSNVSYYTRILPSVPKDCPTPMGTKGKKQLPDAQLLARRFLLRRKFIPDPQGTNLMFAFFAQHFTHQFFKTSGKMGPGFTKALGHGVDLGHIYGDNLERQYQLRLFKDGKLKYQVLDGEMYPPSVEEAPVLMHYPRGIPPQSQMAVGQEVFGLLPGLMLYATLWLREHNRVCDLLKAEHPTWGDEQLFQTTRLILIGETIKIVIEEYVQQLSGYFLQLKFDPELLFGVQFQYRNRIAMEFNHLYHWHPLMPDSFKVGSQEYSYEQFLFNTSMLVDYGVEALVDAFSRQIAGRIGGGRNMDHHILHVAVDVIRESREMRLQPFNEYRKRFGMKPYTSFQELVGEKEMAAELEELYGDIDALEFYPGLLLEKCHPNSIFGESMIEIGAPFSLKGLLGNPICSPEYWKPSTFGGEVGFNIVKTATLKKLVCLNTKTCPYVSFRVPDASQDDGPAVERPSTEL
Sequence of COX2 (P35354 18-604): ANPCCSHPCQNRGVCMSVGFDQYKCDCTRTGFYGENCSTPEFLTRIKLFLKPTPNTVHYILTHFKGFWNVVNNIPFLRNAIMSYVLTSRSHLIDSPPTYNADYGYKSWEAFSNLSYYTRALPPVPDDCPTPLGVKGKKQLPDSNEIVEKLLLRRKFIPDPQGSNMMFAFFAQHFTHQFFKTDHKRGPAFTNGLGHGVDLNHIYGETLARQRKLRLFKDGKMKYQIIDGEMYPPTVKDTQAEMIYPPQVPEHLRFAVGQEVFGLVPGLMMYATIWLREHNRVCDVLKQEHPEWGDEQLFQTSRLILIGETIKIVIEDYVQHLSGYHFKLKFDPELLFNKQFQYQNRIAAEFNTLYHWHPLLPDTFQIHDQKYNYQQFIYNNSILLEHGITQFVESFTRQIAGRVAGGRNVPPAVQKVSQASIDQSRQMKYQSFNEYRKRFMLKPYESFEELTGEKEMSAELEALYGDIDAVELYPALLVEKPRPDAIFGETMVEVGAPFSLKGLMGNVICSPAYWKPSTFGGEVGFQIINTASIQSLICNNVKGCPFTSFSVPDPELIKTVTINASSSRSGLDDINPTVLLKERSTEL
Sequence of PDE3A (Q14432 whole entry): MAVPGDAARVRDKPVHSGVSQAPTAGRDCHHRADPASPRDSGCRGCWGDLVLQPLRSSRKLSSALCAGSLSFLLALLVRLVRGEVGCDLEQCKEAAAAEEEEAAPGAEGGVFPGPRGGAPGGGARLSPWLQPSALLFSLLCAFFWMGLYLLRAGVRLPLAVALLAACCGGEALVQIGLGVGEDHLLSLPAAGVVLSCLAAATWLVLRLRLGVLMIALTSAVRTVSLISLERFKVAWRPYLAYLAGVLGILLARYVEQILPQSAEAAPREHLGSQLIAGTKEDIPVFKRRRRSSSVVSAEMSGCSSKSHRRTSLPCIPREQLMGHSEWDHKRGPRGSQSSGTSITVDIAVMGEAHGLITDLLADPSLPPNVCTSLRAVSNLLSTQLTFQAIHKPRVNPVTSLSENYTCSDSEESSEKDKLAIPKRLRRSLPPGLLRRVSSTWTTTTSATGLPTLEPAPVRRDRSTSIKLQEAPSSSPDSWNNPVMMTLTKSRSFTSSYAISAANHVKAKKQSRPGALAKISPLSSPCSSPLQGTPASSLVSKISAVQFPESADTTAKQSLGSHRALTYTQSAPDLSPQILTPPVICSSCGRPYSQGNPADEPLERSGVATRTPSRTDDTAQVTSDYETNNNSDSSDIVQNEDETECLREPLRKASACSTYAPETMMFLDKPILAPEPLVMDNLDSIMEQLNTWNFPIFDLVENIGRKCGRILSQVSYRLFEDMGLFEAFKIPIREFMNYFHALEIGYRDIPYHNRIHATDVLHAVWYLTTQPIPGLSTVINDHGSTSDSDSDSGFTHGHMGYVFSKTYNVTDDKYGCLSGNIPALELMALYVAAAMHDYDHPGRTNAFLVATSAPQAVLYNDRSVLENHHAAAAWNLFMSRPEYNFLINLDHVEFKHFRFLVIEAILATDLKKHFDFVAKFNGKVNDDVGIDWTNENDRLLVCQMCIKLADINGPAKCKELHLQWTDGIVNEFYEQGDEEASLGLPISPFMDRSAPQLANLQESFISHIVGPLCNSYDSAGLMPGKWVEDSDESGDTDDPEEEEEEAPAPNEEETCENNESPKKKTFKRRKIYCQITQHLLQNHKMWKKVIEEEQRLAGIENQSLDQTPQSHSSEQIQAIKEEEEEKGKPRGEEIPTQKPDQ
Sequence of SERT (P31645 whole entry): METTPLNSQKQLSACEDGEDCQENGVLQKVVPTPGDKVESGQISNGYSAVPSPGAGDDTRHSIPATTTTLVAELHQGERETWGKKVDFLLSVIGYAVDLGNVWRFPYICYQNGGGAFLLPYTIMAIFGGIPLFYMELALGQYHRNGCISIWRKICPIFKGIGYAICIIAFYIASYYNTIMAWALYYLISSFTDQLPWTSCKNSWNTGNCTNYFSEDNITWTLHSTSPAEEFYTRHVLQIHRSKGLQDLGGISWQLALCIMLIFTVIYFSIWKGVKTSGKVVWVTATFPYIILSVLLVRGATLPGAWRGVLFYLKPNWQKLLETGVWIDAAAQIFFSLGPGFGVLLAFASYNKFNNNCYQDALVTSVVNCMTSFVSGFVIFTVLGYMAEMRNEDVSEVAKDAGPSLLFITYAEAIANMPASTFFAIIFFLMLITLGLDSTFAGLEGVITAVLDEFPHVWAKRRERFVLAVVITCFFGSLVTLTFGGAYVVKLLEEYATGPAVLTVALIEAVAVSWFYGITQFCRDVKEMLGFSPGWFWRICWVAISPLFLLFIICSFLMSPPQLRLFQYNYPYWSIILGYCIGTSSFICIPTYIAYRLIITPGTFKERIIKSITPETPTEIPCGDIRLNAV
Sequence of OPRM1 (P35372 whole entry, species assumed): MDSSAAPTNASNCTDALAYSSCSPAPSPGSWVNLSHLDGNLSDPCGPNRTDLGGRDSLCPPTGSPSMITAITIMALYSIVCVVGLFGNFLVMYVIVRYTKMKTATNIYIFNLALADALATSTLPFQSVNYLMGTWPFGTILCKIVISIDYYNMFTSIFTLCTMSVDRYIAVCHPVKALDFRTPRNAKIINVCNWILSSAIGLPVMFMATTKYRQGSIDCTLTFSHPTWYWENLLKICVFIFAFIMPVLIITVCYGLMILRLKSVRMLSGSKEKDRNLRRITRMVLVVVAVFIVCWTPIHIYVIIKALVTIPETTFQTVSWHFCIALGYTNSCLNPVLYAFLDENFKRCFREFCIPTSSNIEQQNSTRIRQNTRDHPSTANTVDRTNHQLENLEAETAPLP

## C[C@H]1C[C@@H](O)CN(c2ncc(Cl)c(Nc3ccc4c(c3)c3c(c(=O)n4C)OCC(F)(F)[C@H](C4CC4)N3)n2)C1 [12a CCT373566, (S)-10-((5-Chloro-2-((3R,5S)-3-hydroxy-5-methylpiperidin-1-yl)pyrimidin-4-yl)amino)-2-cyclopropyl-3,3-difluoro-7-methyl-1,2,3,4-tetrahydro-[1,4]oxazepino[2,3-c]quinolin-6(7H)-one]
HT; 14-day proliferation assay
  HT GI50: Very potent growth inhibition
HT; Homo sapiens, HT, 336 h, read-out: HT GI50
  GI50: 0.008 µM
COX1; read-out: Max Response
  Emax: 33%
COX1; read-out: RC50 (IC50)
  IC50: > 10 µM
PDE3A; read-out: Max Response
  Emax: 0.2%
PDE3A; read-out: RC50 (IC50)
  IC50: > 10 µM
PDE4D2; read-out: Max Response
  Emax: 10.8%
PDE4D2; read-out: RC50 (IC50)
  IC50: > 10 µM
COX2; read-out: Max Response
  Emax: 0%
COX2; read-out: RC50 (IC50)
  IC50: > 10 µM
AChE; read-out: Max Response
  Emax: 3.36%
AChE; read-out: RC50 (IC50)
  IC50: > 10 µM
MAOA; read-out: Max Response
  Emax: 0%
MAOA; read-out: RC50 (IC50)
  IC50: > 10 µM
CNR1; read-out: Max Response
  Emax: 1.95%
CNR1; read-out: RC50 (IC50)
  IC50: > 10 µM
OPRM1; read-out: Max Response
  Emax: 9.16%
OPRM1; read-out: RC50 (IC50)
  IC50: > 10 µM
ADRB2; read-out: Max Response
  Emax: 62.3%
ADRB2; read-out: RC50 (IC50)
  IC50: 1.74 µM
DRD2S; read-out: Max Response
  Emax: 28.7%
DRD2S; read-out: RC50 (IC50)
  IC50: > 10 µM
HRH2; read-out: Max Response
  Emax: 46.3%
HRH2; read-out: RC50 (IC50)
  IC50: > 10 µM
CNR2; read-out: Max Response
  Emax: 10.7%
CNR2; read-out: RC50 (IC50)
  IC50: > 10 µM
HTR1A; read-out: Max Response
  Emax: 13.8%
HTR1A; read-out: RC50 (IC50)
  IC50: > 10 µM
HTR1B; read-out: Max Response
  Emax: 5.08%
HTR1B; read-out: RC50 (IC50)
  IC50: > 10 µM
ADRB1; read-out: Max Response
  Emax: 57.3%
ADRB1; read-out: RC50 (IC50)
  IC50: > 10 µM
ADRA2A; read-out: Max Response
  Emax: 0%
ADRA2A; read-out: RC50 (IC50)
  IC50: > 10 µM
OPRK1; read-out: Max Response
  Emax: 1.28%
OPRK1; read-out: RC50 (IC50)
  IC50: > 10 µM
SERT; read-out: Max Response
  Emax: 0%
SERT; read-out: RC50 (IC50)
  IC50: > 10 µM
NET; read-out: Max Response
  Emax: 8.36%
NET; read-out: RC50 (IC50)
  IC50: > 10 µM
DAT; read-out: Max Response
  Emax: 0%
DAT; read-out: RC50 (IC50)
  IC50: > 10 µM
In vitro
  PAMPA (pH 7.4): 24 ×10–6 cm s–1
